# “And” between values parts separate entries of the source, which are not always exact repeats. Equal values may be shown once. Non-standard residues stand in square brackets, D forms with d. Residues, ends and D or L forms follow the SMILES beside them. Nva = CCC[C@H](N)C(=O)O
# Legend:
# [1] = test system: liver protein expression of HFD induced NASH mice; assay: HFD mice: liver western blot; type: in vivo, mouse; details: JT003 500 μg kg−1, in words
# Method: The NASH model was conducted with feeding a HFD for 16 weeks combine with a MCD diet (Methionine/Choline Deficient Diet, Medicience, China) in the last 4 weeks. Mice administered a MCS diet (Methionine/Choline Sufficient Diet, Medicience, China) serves as control group. NAFLD or NASH mice treated with JT003 for 4 weeks were used to evaluate the pharmacological effects (n = 6; 500 μg kg^−1; daily intraperitoneal injection). Food and water were provided ad libitum. The body weight of mice was examined every 3 days. The diet was renewed every 7 days. JT003 was diluted in PBS.
# Total protein was isolated from cells or liver samples using RIPA lysis buffer (50.0 mM Tris-HCl (pH = 8.0), 150.0 mM NaCl, 0.02% NaN3, 0.1% SDS, 1% NP-40, 0.5% deoxysodium cholate, 1 mM EDTA, […]). The protein concentration was quantified with BCA kit (Pierce, ThermoFisher Scientific, USA). Thirty micrograms protein were separated by 10 or 12% sodium dodecyl sulfate-polyacrylamide gel electrophoresis depending on the band of target protein, then transferred onto equilibrated polyvinylidene difluoride membrane (PVDF, Immobilon®-PSQ transfer membranes, Merck Millipore, Germany). Membranes were incubated with primary antibodies overnight at 4 °C. Specific antibodies were listed in Supplementary Table 3. After incubation with the secondary antibody, proteins were detected by enhanced chemiluminescence (Glarity^TM Western ECL Substrate, Bio-Rad, USA) and the signals were recorded and quantified with Tanon-Image Software (Shanghai, China). Reference antibody GAPDH were used for data normalization.
# [2] = test system: gene expression in LX2 cells; assay: Quantitative RT-PCR in LX2 cells; type: cell-based, human; set-up: key to Vimentin mRNA / CTGF mRNA / OPN mRNA / IL-6 mRNA / TNF mRNA / IL-1 mRNA / TIMP2 mRNA / MMP2 mRNA / MMP9 mRNA / MMP12 mRNA / MMP13 mRNA: relative mRNA expression normalized to β-actin
# Method: (§1) Hepatoma carcinoma cell line HepG2 and human hepatic activated stellate cell line LX2 used in this study were purchased from Type Culture Collection of the Chinese Academy of Sciences (Shanghai, China). Cells were cultured in Dulbecco’s modified Eagle’s medium (DMEM) with 10% fetal bovine serum (FBS), supplemented with 1% penicillin–streptomycin (ThermoFisher Scientific, USA) at 37 °C in a humidified atmosphere of 5% CO2. In PA (Sigma, USA) induced lipid accumulation cell model, HepG2 cells were seeded into a 6-well plate at 5E5 cells per well. 0.25 mM PA and/or 200 μM candidate peptides were co-incubated with cells for 24 h. Then Oil Red O staining was performed to evaluate the accumulation of lipid droplets. BSA (Sigma, USA) was used in this experiment as the negative control. For LX2 cells, 2E5 cells were seeded, then the adherent cells were exposed to 200 μM candidate peptides for another 48 h. Next, the cell protein was obtained and western blotting was performed. Candidate peptides were diluted in DMEM in a stock concentration of 1 M.
# (§2) Liver total RNA was extracted by using Trizol reagent following the manufacture’s instruction (TransGen Biotech, China). The concentration of RNA was measured by Nanodrop 2000 (ThermoFisher Scientific, USA). cDNA was transcribed from 10ug total RNA with First Strand cDNA synthesis Super Mix (TransGen Biotech, China). The cDNA was diluted 1/50 and 1.0 uL were used as a template for qPCR. qPCR was performed with SYBR Green qPCR Super Mix (TransGen Biotech, China) in the Light Cycler 480 Real-Time PCR System (Roche, Swiss). Reference gene β-actin was used for data normalization. mRNA expression was analyzed with specific primers listed in Supplementary Table 2.
# [3] = test system: gene expression in PA induced HepG2 cells; assay: Quantitative RT-PCR in PA induced HepG2 cells; type: cell-based, human; details: for IL-1a mRNA, relative expression, Supplementary Figure 11a / IL-6 mRNA, relative expression, Supplementary Figure 11a / IL-8 mRNA, relative expression, Supplementary Figure 11a / TNFa mRNA, relative expression, Supplementary Figure 11a: PA induced HepG2 cells, PA+JT003
# Method: as §1, §2
# HFD induced NASH mice = assay: HFD mice: insulin tolerance test (ITT); type: in vivo, mouse; details: JT003 500 μg kg−1, in words
# Method: For insulin tolerance test, one week after OGTT assay, 6 h fasted mice were treated with JT003, and the baseline blood glucose level was measured. An hour later, 0.25 U kg^−1 insulin (Novolin R, Denmark) were intraperitoneal injection to mice, blood glucose level was measured at 15, 30, 45, 60 min
# [4] = Figure 6a left, LX2 cells, JT003 vs Vehicle, single replicates, n = 4
# [5] = Figure 6a right, LX2 cells, JT003 vs Vehicle, single replicates, n = 4
compound,measurement,setting,value
CCC[C@H](NC(=O)[C@@H]1CCCN1)C(=O)N[C@@H](CC(C)C)C(=O)N[C@@H](Cc1ccc(O)cc1)C(=O)N[C@@H](Cc1ccc(O)cc1)C(=O)N[C@@H](Cc1ccccc1)C(=O)N[C@@H](C)C(N)=O [JT003] (H-P[Nva]LYYFA-NH2),PI3K and Akt phosphorylation in liver tissue,[1],increased
same,AMPK and PPARα signaling (western blotting),[1]; liver,activated apparently
same,expression of downstream factor PPARγ,[1]; liver,inhibited
same,phosphorylation of PERK and its downstream eIF2α and JNK,[1]; liver,decreased notably
same,MMP2 mRNA,[2]; [4],1.293 and 0.7704 and 1.1819 and 1.0719
same,MMP9 mRNA,[2]; [4],2.131 and 1.538 and 2.384 and 1.884
same,MMP12 mRNA,[2]; [4],1.826 and 1.7 and 2.413 and 1.763
same,MMP13 mRNA,[2]; [4],2.514 and 2.381 and 3.247 and 2.347
same,TIMP2 mRNA,[2]; [4],0.8037 and 0.8728 and 0.6883 and 0.7883
same,CTGF mRNA,[2]; [5],0.7417 and 0.5541 and 0.6479 and 0.621
same,IL-1 mRNA,[2]; [5],0.9119 and 0.6477 and 0.5242 and 0.686
same,IL-6 mRNA,[2]; [5],0.6335 and 0.6954 and 0.6645 and 0.66
same,OPN mRNA,[2]; [5],0.8619 and 0.7815 and 0.9867 and 0.8941
same,TNF mRNA,[2]; [5],0.6949 and 0.8263 and 0.7906 and 0.7334
same,Vimentin mRNA,[2]; [5],0.6199 and 0.6972 and 0.6586 and 0.5779
same,"IL-1a mRNA, relative expression, Supplementary Figure 15a","[2]; JT003 vs Vehicle, replicate 1",0.9119
same,"IL-6 mRNA, relative expression, Supplementary Figure 15a","[2]; JT003 vs Vehicle, replicate 1",1.034
same,"TNFa mRNA, relative expression, Supplementary Figure 15a","[2]; JT003 vs Vehicle, replicate 1",0.6949
same,"iNOS mRNA, relative expression, Supplementary Figure 15a","[2]; JT003 vs Vehicle, replicate 1",1.242
same,"IL-1a mRNA, relative expression, Supplementary Figure 15a","[2]; JT003 vs Vehicle, replicate 2",0.5774
same,"IL-6 mRNA, relative expression, Supplementary Figure 15a","[2]; JT003 vs Vehicle, replicate 2",0.932
same,"TNFa mRNA, relative expression, Supplementary Figure 15a","[2]; JT003 vs Vehicle, replicate 2",0.8263
same,"iNOS mRNA, relative expression, Supplementary Figure 15a","[2]; JT003 vs Vehicle, replicate 2",1.188
same,"IL-1a mRNA, relative expression, Supplementary Figure 15a","[2]; JT003 vs Vehicle, replicate 3",0.5946
same,"IL-6 mRNA, relative expression, Supplementary Figure 15a","[2]; JT003 vs Vehicle, replicate 3",0.9828
same,"TNFa mRNA, relative expression, Supplementary Figure 15a","[2]; JT003 vs Vehicle, replicate 3",0.7606
same,"iNOS mRNA, relative expression, Supplementary Figure 15a","[2]; JT003 vs Vehicle, replicate 3",0.8438
same,"IL-1a mRNA, relative expression, Supplementary Figure 15a","[2]; JT003 vs Vehicle, replicate 4",0.706
same,"IL-6 mRNA, relative expression, Supplementary Figure 15a","[2]; JT003 vs Vehicle, replicate 4",0.9774
same,"TNFa mRNA, relative expression, Supplementary Figure 15a","[2]; JT003 vs Vehicle, replicate 4",0.7834
same,"iNOS mRNA, relative expression, Supplementary Figure 15a","[2]; JT003 vs Vehicle, replicate 4",0.9516
same,"HSC activation factors (Vimentin, CTGF, OPN, IL-6, TNFα and IL-1α)","[2]; LX2, 200 μM JT003, in words",significantly suppressed
same,expression of ER-mitochondrial function-related markers,"[2]; LX2, 200 μM JT003, in words",improved
same,"expression of genes involved in ECM accumulation (TIMP1) and degradation (MMP9, MMP12, MMP13)","[2]; LX2, 200 μM JT003, in words",notably altered
same,"inflammation related genes (TNFα, IL-1α, IL-6 and iNOS)","[2]; LX2, 200 μM JT003, in words",suppressed
same,"lipogenesis (FAS, SREBP-1C, SREBP-2 and ACC1) and fatty acid β-oxidation (ACOX, LCAD and PDK4) genes","[3]; HepG2, 0.25 mM PA + 200 μM JT003, in words",meliorated notably
same,inflammatory factors and ER-mitochondrial axis dysfunction (mRNA),"[3]; PA induced HepG2, 200 μM JT003, in words",meliorated notably
same,"IL-1a mRNA, relative expression, Supplementary Figure 11a",[3]; replicate 1,1.056
same,"IL-6 mRNA, relative expression, Supplementary Figure 11a",[3]; replicate 1,0.3197
same,"IL-8 mRNA, relative expression, Supplementary Figure 11a",[3]; replicate 1,0.8479
same,"TNFa mRNA, relative expression, Supplementary Figure 11a",[3]; replicate 1,0.6008
same,"IL-1a mRNA, relative expression, Supplementary Figure 11a",[3]; replicate 2,0.8256
same,"IL-6 mRNA, relative expression, Supplementary Figure 11a",[3]; replicate 2,0.3197
same,"IL-8 mRNA, relative expression, Supplementary Figure 11a",[3]; replicate 2,0.8134
same,"TNFa mRNA, relative expression, Supplementary Figure 11a",[3]; replicate 2,0.8039
same,"IL-1a mRNA, relative expression, Supplementary Figure 11a",[3]; replicate 3,0.9853
same,"IL-6 mRNA, relative expression, Supplementary Figure 11a",[3]; replicate 3,0.4368
same,"IL-8 mRNA, relative expression, Supplementary Figure 11a",[3]; replicate 3,0.8277
same,"TNFa mRNA, relative expression, Supplementary Figure 11a",[3]; replicate 3,0.7928
same,"IL-1a mRNA, relative expression, Supplementary Figure 11a",[3]; replicate 4,0.9145
same,"IL-6 mRNA, relative expression, Supplementary Figure 11a",[3]; replicate 4,0.3522
same,"IL-8 mRNA, relative expression, Supplementary Figure 11a",[3]; replicate 4,0.8368
same,"TNFa mRNA, relative expression, Supplementary Figure 11a",[3]; replicate 4,0.7583
same,"HFD-induced insulin resistance, insulin tolerance test",HFD induced NASH mice,obviously ameliorated

# Source: article PMC7669869, “AdipoR1/AdipoR2 dual agonist recovers nonalcoholic steatohepatitis and related fibrosis via endoplasmic reticulum-mitochondria axis” (Nature Communications, 2020)
